The conditions of the data set: screened with a sieve (1.00 mm, No. 18), poured into glass graduated measuring cylinder, apparent volume. On the procedure:
The tops were scraped flat. The apparent volumes were recorded. The bulk densities were calculated.

The values that follow come from patent US20220402961A1 (BONTAC BIO-ENGINEERING(SHENZHEN) CO.,LTD, priority 2021, published 2022).

Consider `NC(=O)c1ccc[n+]([C@@H]2O[C@H](COP(=O)([O-])O)[C@@H](O)[C@H]2O)c1` [Form 1, nicotinamide mononucleotide anhydrous crystal (form 1)], for which the Bulk density came to 0.15 g/mL.
